We go through four compounds from ChEMBL document CHEMBL4814006, “Novel amino substituted tetracyclic imidazo[4,5-b]pyridine derivatives: Design, synthesis, antiproliferative activity and DNA/RNA binding study” (Eur J Med Chem, 2021).

Structures are written as SMILES. Active and inactive are the calls of the source. The rule behind the calls is not given here.

Usually IC50 stands for the concentration that inhibits the measured activity by half. What is called ΔTm is the change in melting temperature against a reference sample.

The test system of data set [1] is HCT-116. The data set is described as follows: Antiproliferative activity against human HCT-116 cells assessed as inhibition of cell growth incubated for 72 hrs by MTT assay. Format: functional, cell-based. The settings on record: HCT-116, 72 h. (In general: Tetrazolium assays rely on reduction of a dye to a coloured formazan, in cell work by metabolically active cells.)

The subject of data set [2] is HEK293. Description: Cytotoxicity against human HEK293 cells assessed as inhibition of cell growth incubated for 72 hrs by MTT assay. It is filed as cell-based. The settings on record: HEK293, 72 h.
For data set [3], the system named is NCI-H460. The data set is described as follows: Antiproliferative activity against human NCI-H460 cells assessed as inhibition of cell growth incubated for 72 hrs by MTT assay. It is filed as functional, cell-based. Particulars: NCI-H460, 72 h.
In data set [4] the test system is MCF7. The data set is described as follows: Antiproliferative activity against human MCF7 cells assessed as inhibition of cell growth incubated for 72 hrs by MTT assay. Format: functional, cell-based. Particulars: MCF7, 72 h.
The nature of data set [5]: Selectivity index, ratio of IC50 for human HEK293 cells to IC50 for human HCT116 cells. It is filed as toxicity. The settings on record: HEK293 cells versus HCT116 cells, read-out: Ratio IC50.
Data set [6] concerns Poly(dA-dU)oligonucleotide. The data set is described as follows: Binding affinity to polyA-polyU RNA (unknown origin) assessed as change in melting temperature in sodium cacodylate buffer at pH 7 at compound:polynucleotide concentration ratio of 0.3 by UV/vis spectrophotometric analysis. Format: nucleic-acid assay.
Data set [7] has as its system Poly(dA-dU)oligonucleotide. Description: Binding affinity to polyA-polyU RNA (unknown origin) assessed as ratio of bound compound to polynucleotide phosphate in sodium cacodylate buffer at pH 7 by fluorescence spectroscopy based Scatchard method. It is filed as nucleic-acid assay.
Data set [8] deals with Poly(dA-dU)oligonucleotide. Description: Binding affinity to polyA-polyU RNA (unknown origin) assessed as binding constant in sodium cacodylate buffer at pH 7 by fluorescence spectroscopy. It is filed as nucleic-acid assay.
In data set [9] the test system is Calf thymus DNA. Description: Binding affinity to calf thymus DNA assessed as change in melting temperature in sodium cacodylate buffer at pH 7 at compound:polynucleotide concentration ratio of 0.3 by UV/Vis spectrophotometric analysis. Format: nucleic-acid assay. The settings on record: Bos taurus.
Data set [10] has as its system Poly(dG-dC)oligonucleotide. Description: Binding affinity to poly(dGdC)2 DNA (unknown origin) in sodium cacodylate buffer at pH 7 by CD spectroscopy. It is filed as nucleic-acid assay.
Data set [11] concerns Poly(dA-dT)oligonucleotide. The data set is described as follows: Binding affinity to poly(dAdT)2 DNA (unknown origin) assessed as ratio of bound compound to polynucleotide phosphate in sodium cacodylate buffer at pH 7 by fluorescence spectroscopy based Scatchard method. It is filed as nucleic-acid assay.
Data set [12] has as its system Calf thymus DNA. Description: Binding affinity to calf thymus DNA in sodium cacodylate buffer at pH 7 by CD spectroscopy. Particulars: Bos taurus.
The subject of data set [13] is Poly(dA-dT)oligonucleotide. Description: Binding affinity to poly(dAdT)2 DNA (unknown origin) assessed as ratio of fluorescence intensity of compound-polynucleotide complex to fluorescence intensity of compound in sodium cacodylate buffer at pH 7 by fluorescence spectroscopy based Scatchard method. It is filed as nucleic-acid assay.
The subject of data set [14] is Poly(dA-dT)oligonucleotide. The data set is described as follows: Binding affinity to poly(dAdT)2 DNA (unknown origin) assessed as change in melting temperature in sodium cacodylate buffer at pH 7 at compound:polynucleotide concentration ratio of 0.3 by UV/Vis spectrophotometric analysis. Format: nucleic-acid assay.
The test system of data set [15] is Poly(dA-dT)oligonucleotide. The data set is described as follows: Binding affinity to poly(dAdT)2 DNA (unknown origin) assessed as binding constant in sodium cacodylate buffer at pH 7 by fluorescence spectroscopy. Format: nucleic-acid assay.
Data set [16] concerns Poly(dA-dU)oligonucleotide. Description: Binding affinity to polyA-polyU RNA (unknown origin) assessed as ratio of fluorescence intensity of compound-polynucleotide complex to fluorescence intensity of compound in sodium cacodylate buffer at pH 7 by fluorescence spectroscopy based Scatchard method. Format: nucleic-acid assay.
Data set [17] has as its system Quadruplex DNA. The data set is described as follows: Binding affinity to human Tel22 G quadruplex DNA assessed as ratio of fluorescence intensity of compound-polynucleotide complex to fluorescence intensity of compound in sodium cacodylate buffer at pH 7 at binding stoichiometry ratio of 1:1 by fluorescence spectroscopy. Format: nucleic-acid assay.
In data set [18] the test system is Poly(dA-dT)oligonucleotide. The data set is described as follows: Binding affinity to poly(dAdT)2 DNA (unknown origin) in sodium cacodylate buffer at pH 7 by CD spectroscopy. Format: nucleic-acid assay.
For data set [19], the system named is Quadruplex DNA. The data set is described as follows: Binding affinity to human Tel22 G quadruplex DNA assessed as binding constant in sodium cacodylate buffer at pH 7 at binding stoichiometry ratio of 1:1 by fluorescence spectroscopy. Format: nucleic-acid assay.
Data set [20] has as its system Quadruplex DNA. Description: Binding affinity to human Tel22 G quadruplex DNA assessed as change in melting temperature in sodium cacodylate buffer at pH 7 by UV/Vis spectrophotometric analysis. Format: nucleic-acid assay.
Data set [21] relates to Poly(dG-dC)oligonucleotide. The data set is described as follows: Binding affinity to poly(dGdC)2 DNA (unknown origin) assessed as binding constant in sodium cacodylate buffer at pH 7 by fluorescence spectroscopy. Format: nucleic-acid assay.
The subject of data set [22] is Quadruplex DNA. The data set is described as follows: Binding affinity to human Tel22 G quadruplex DNA assessed as ratio of fluorescence intensity of compound-polynucleotide complex to fluorescence intensity of compound in sodium cacodylate buffer at pH 7 at binding stoichiometry ratio of 1:2 by fluorescence spectroscopy. It is filed as nucleic-acid assay.
For data set [23], the system named is Poly(dA-dU)oligonucleotide. Description: Binding affinity to polyA-polyU RNA (unknown origin) in sodium cacodylate buffer at pH 7 by CD spectroscopy. It is filed as nucleic-acid assay.
For data set [24], the system named is Calf thymus DNA. Description: Binding affinity to calf thymus DNA assessed as binding constant in sodium cacodylate buffer at pH 7 by fluorescence spectroscopy. Particulars: Bos taurus.
Data set [25] deals with Quadruplex DNA. The data set is described as follows: Binding affinity to human Tel22 G quadruplex DNA assessed as binding constant in sodium cacodylate buffer at pH 7 at binding stoichiometry ratio of 1:2 by fluorescence spectroscopy. It is filed as nucleic-acid assay.
Data set [26] concerns Poly(dG-dC)oligonucleotide. The data set is described as follows: Binding affinity to poly(dGdC)2 DNA (unknown origin) assessed as ratio of bound compound to polynucleotide phosphate in sodium cacodylate buffer at pH 7 by fluorescence spectroscopy based Scatchard method. Format: nucleic-acid assay.
Data set [27] relates to Calf thymus DNA. The data set is described as follows: Binding affinity to calf thymus DNA assessed as ratio of bound compound to polynucleotide phosphate in sodium cacodylate buffer at pH 7 by fluorescence spectroscopy based Scatchard analysis. The settings on record: Bos taurus.
Data set [28] has as its system Calf thymus DNA. Description: Binding affinity to calf thymus DNA assessed as ratio of fluorescence intensity of compound-polynucleotide complex to fluorescence intensity of compound in sodium cacodylate buffer at pH 7 by fluorescence spectroscopy based Scatchard method. The settings on record: Bos taurus.
The subject of data set [29] is Poly(dG-dC)oligonucleotide. The data set is described as follows: Binding affinity to poly(dGdC)2 DNA (unknown origin) assessed as ratio of fluorescence intensity of compound-polynucleotide complex to fluorescence intensity of compound in sodium cacodylate buffer at pH 7 by fluorescence spectroscopy based Scatchard method. Format: nucleic-acid assay.

Consider `N#Cc1c(Cl)c2ccccc2n2c1nc1ncccc12`, for which the IC50 in [1] amounted to 100 nM; in data set [2], 1600 nM; in data set [3] it was 4600 nM; in data set [4], 2000 nM. Also, the selectivity ratio in data set [5] was 16.

For `CC(C)CNc1c(C#N)c2nc3cccnc3n2c2ccccc12`, the ΔTm in [6] was determined as 0 °C; in [9], 0.8 °C; in data set [14], 0.8 °C; in [20], 1.8 °C. The Ratio in [7] is less than 0.1; in data set [11], 0.1; in data set [13] it was 10.4; in [16], 2.5; in data set [17] it was 5.52. For the same compound, the values for the log Ks in data set [8], in [15] and in [19] were 5.3, 4.6 and 4.51, respectively. Moreover, the result in data set [10] was inactive. Also, the concentration for half-maximal inhibition (IC50) in [1] was no less than 100000 nM; in data set [2] it was greater than 100000 nM; in data set [3], no less than 100000 nM; in data set [4] it was no less than 100000 nM. The result in data set [12] and in [18] was Active.

As to `N#Cc1c(N2CCNCC2)c2ccc(N3CCNCC3)cc2n2c1nc1cccnc12`, the ΔTm in [6] was 15 °C; in data set [9], 7.5 °C; in data set [14], 14.3 °C. The Ratio in [7] is 0.1; in data set [22], 0.81; in data set [11] it was 0.2; in data set [13], 1.5; in data set [26], 0.3; in data set [16], 2. Besides, the Ratio in [17] is 0.77; in data set [27], 0.3; in data set [28] it was 0.1; in data set [29], less than 0.1. The log Ks turned out to be 6.6 in data set [8]; 6.8 in data set [21]; 6.3 in data set [24]; 6.8 in data set [15]; 6.85 in [25]; 5.04 in [19]. Further, the result in [10], in [23] and in [18] was Active. Also, the IC50 was determined as 400 nM in [1], 200 nM in data set [2], 700 nM in data set [3] and 400 nM in [4].

In the case of `N#Cc1c(N2CCNCC2)c2ccc(N3CCNCC3)cc2n2c1nc1ncccc12`, the shift in melting temperature (ΔTm) in [6] amounted to 13.5 °C; in data set [9] it was 6.6 °C; in data set [14], 11.1 °C; in data set [20], 2.5 °C. Moreover, the Ratio in data set [7] is 0.1; in data set [22] it was 0.89; in [11], less than 0.1; in [13], 1.3; in data set [26], 0.2; in data set [16] it was 1.8. Moreover, the Ratio was 0.62 in data set [17], 0.1 in data set [27], 0 in data set [28] and 0 in [29]. The log Ks amounted to 6.5 in [8]; 6.6 in data set [21]; 6.4 in [24]; 6.8 in data set [15]; 7.16 in data set [25]; 5.33 in data set [19]. The result in data set [10], in data set [23] and in data set [18] was Active. Further, the IC50 in [1] was no less than 100000 nM; in data set [2], greater than 100000 nM; in [3] it was no less than 100000 nM; in [4], no less than 100000 nM.
